Test results: ChEMBL document CHEMBL1201862, “PubChem BioAssay data set” (2004)
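Protocol summary: plate cells (96-well), add compound at 5 concentrations, incubate 48 h, interpolate endpoints linearly. GI50: concentration for 50% inhibition of growth.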 Calls of active or inactive are those of the source. No stated cut-off is given here; in the data, active = GI50 up to about 1.1 µM and inactive = higher.

Experiments:
Experiment in all cases: NCI-60 cell line screen, 48 h
ACHN = system: ACHN
OVCAR-4 = system: OVCAR-4
HOP-92 = system: HOP-92
NCI-H522 = system: NCI-H522
CCRF-CEM = system: CCRF-CEM
SK-OV-3 = system: SK-OV-3
SK-MEL-2 = system: SK-MEL-2
KM12 = system: KM12
EKVX = system: EKVX
OVCAR-3 = system: OVCAR-3
HCC 2998 = system: HCC 2998
SNB-19 = system: SNB-19
SN12C = system: SN12C
SR = system: SR
HT-29 = system: HT-29
SK-MEL-5 = system: SK-MEL-5
A549 = system: A549
DMS-273 = system: DMS-273

Measured: GI50

N#C/C(=C\c1ccccc1)C(NO)Nc1ccccc1 (stereo not drawn)
inactive: ACHN 72.9 µM | OVCAR-4 84.3 µM | HOP-92 57.3 µM | NCI-H522 35.3 µM | CCRF-CEM 31.7 µM | SK-OV-3 > 100 µM | SK-MEL-2 > 100 µM | KM12 > 100 µM | EKVX > 100 µM | OVCAR-3 48.2 µM | HCC 2998 > 100 µM | SNB-19 60.4 µM | SN12C > 100 µM | SR 20.1 µM | HT-29 72.9 µM | SK-MEL-5 53.6 µM | A549 > 100 µM | DMS-273 > 100 µM

O=C(Nc1nccs1)c1cc(C2=CC=CC([N+](=O)[O-])C=C2)nc(S)n1 (stereo not drawn)
inactive: ACHN > 100 µM | HOP-92 > 100 µM | NCI-H522 > 100 µM | CCRF-CEM > 100 µM | SK-OV-3 > 100 µM | SK-MEL-2 > 100 µM | KM12 > 100 µM | EKVX > 100 µM | OVCAR-3 > 100 µM | HCC 2998 > 100 µM | SNB-19 > 100 µM | SN12C > 100 µM | SR > 100 µM | HT-29 > 100 µM | SK-MEL-5 > 100 µM | A549 > 100 µM | DMS-273 > 100 µM

CCOP(=O)(OCC)OC1C=CC2CCC1C2 (stereo not drawn)
inactive: ACHN > 100 µM | OVCAR-4 > 100 µM | NCI-H522 > 100 µM | CCRF-CEM > 100 µM | SK-OV-3 > 100 µM | SK-MEL-2 > 100 µM | KM12 > 100 µM | EKVX > 100 µM | OVCAR-3 > 100 µM | HCC 2998 > 100 µM | SNB-19 > 100 µM | SN12C > 100 µM | SR 26.6 µM | HT-29 > 100 µM | SK-MEL-5 > 100 µM | A549 > 100 µM | DMS-273 18.6 µM

NC(=O)N/N=C1/CCCC/C1=C\c1ccccc1
inactive: ACHN > 100 µM | OVCAR-4 > 100 µM | HOP-92 > 100 µM | NCI-H522 > 100 µM | CCRF-CEM > 100 µM | SK-OV-3 > 100 µM | SK-MEL-2 > 100 µM | KM12 > 100 µM | EKVX > 100 µM | OVCAR-3 > 100 µM | HCC 2998 > 100 µM | SN12C > 100 µM | SR > 100 µM | HT-29 > 100 µM | SK-MEL-5 > 100 µM | A549 > 100 µM | DMS-273 > 100 µM

CC(C)(C)N/N=N/c1cn(C2OC(CO)C(O)C2O)c(=O)[nH]c1=O (stereo not drawn)
inactive: ACHN > 100 µM | HOP-92 > 100 µM | NCI-H522 > 100 µM | CCRF-CEM 26.2 µM | SK-OV-3 > 100 µM | SK-MEL-2 > 100 µM | KM12 > 100 µM | EKVX > 100 µM | OVCAR-3 > 100 µM | HCC 2998 > 100 µM | SNB-19 > 100 µM | SN12C > 100 µM | SR 20.8 µM | HT-29 > 100 µM | SK-MEL-5 > 100 µM | A549 > 100 µM | DMS-273 > 100 µM

COC(=O)C(CCC1(C)OCCO1)C(C)=O (stereo not drawn)
inactive: ACHN > 100 µM | OVCAR-4 > 100 µM | NCI-H522 > 100 µM | CCRF-CEM > 100 µM | SK-OV-3 > 100 µM | SK-MEL-2 > 100 µM | KM12 > 100 µM | EKVX > 100 µM | OVCAR-3 > 100 µM | HCC 2998 > 100 µM | SNB-19 > 100 µM | SN12C > 100 µM | SR 84.3 µM | HT-29 > 100 µM | SK-MEL-5 > 100 µM | A549 > 100 µM | DMS-273 > 100 µM
